Results as given in patent publication US11464859B2 (priority 2005, dated 2022).
pIC50: −log10 of the molar value. Entries after “also recorded” stand apart in the source; their conditions may differ.

Legend:
[1] = cited from earlier work
[2] = system: many different cancer cell lines; conditions: cited from earlier work
[3] = system: acute promyelocytic leukaemia; conditions: cited from earlier work; for efficacy and side effects compared with intravenous arsenic trioxide: oral, pilot study, patients with acute promyelocytic leukaemia, preliminary results
[4] = system: prostate and/or urogenital cancer and bone metastasis; conditions: human, in vivo
[5] = in vivo
[6] = system: panel of 43 human tumour cell lines
[7] = system: human tumour xenografts (renal cell carcinoma RXF 944LX, mammary cancer MAXF 401)
[8] = target: telomerase (Homo sapiens, UniProt O14746); format: biochemical; conditions: sodium salt
[9] = system: telomeres of human cancer cells; format: cell-based; conditions: sodium salt
[10] = in vivo; remark: listed apart in the source
[11] = human, in vivo

Chain of telomerase (O14746 whole entry): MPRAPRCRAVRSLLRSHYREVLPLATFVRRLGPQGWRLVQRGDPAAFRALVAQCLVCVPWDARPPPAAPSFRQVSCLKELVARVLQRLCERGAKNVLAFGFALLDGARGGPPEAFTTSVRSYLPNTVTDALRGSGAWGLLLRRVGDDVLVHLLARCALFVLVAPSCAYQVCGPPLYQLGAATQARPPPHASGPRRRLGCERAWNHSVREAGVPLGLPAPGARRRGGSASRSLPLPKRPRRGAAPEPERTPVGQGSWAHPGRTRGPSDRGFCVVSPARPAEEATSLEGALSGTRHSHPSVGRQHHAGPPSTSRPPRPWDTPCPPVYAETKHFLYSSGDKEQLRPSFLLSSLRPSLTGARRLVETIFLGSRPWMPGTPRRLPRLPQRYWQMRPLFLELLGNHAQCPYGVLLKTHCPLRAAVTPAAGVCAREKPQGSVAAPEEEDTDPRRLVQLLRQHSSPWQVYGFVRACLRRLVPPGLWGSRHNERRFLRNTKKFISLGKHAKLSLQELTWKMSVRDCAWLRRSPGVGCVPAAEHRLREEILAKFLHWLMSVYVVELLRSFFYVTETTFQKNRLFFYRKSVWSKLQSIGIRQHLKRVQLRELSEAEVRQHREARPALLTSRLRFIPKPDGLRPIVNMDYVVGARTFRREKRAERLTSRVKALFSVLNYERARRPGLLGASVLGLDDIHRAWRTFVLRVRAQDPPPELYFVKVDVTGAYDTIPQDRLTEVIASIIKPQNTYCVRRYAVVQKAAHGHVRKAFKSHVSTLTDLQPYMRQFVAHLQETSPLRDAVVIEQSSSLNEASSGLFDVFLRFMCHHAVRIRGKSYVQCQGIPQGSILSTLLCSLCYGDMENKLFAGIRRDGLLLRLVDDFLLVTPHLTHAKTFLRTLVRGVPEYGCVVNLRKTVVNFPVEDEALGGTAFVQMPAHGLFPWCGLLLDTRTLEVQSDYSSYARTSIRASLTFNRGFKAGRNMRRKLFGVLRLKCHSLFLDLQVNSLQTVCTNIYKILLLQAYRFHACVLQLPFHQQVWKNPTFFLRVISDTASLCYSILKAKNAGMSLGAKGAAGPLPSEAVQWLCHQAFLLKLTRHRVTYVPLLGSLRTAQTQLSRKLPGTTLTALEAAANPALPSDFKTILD

arsenic trioxide
incidence of the listed adverse events (fatigue, fever, oedema, chest pain, nausea, ECG abnormalities etc.) ([1]; patients treated with arsenic trioxide): ≥ 10 % of patients
effect on QT interval ([1]; patients): prolong the QT and QT interval corrected for rate (QTc)
effect on growth and apoptosis [2]: inhibits growth and promotes apoptosis
clinical response ([3]; daily intravenous administration alone, newly diagnosed and relapsed acute promyelocytic leukaemia): complete responses in a large majority of patients
efficacy and side effects compared with intravenous arsenic trioxide [3]: comparable

S1[As]2S[As]3S[As]2S[As]13 [tetra-arsenic tetrasulphide]
efficacy and side effects compared with intravenous arsenic trioxide [3]: The same was noted

arsenous acid sodium salt
PSA levels and tumour size, overall [4]: a reduction in their PSA levels and tumour size
change in PSA levels, judgement [4]: clinically significant change
clinical response, overall [4]: Most patients showed at least a partial response
decrease in tumour activity [4]: 99.15%
further reduction in tumour activity [4]: 67.56%
further tumour activity reduction [4]: 40.32%
quality of life [4]: strongly ameliorated
absorption [5]: rapidly absorbed
persistence in plasma [5]: remained in the plasma for prolonged periods
bioavailability ([5]; po): approximately 100%
pIC50 [6]: 6.22
combination effect [6]: additive effects
potency among three arsenic compounds [6]: most potent
potency relative to arsenic trioxide [6]: at least 15 fold
anti-tumour activity in a human tumour model in vivo [7]: showed anti-tumour activity
activity in subcutaneously transplanted human tumour xenografts ([7]; in vivo): borderline active in 2/7
efficacy by schedule ([7]; in vivo): better
inhibition of telomerase activity [8]: doesn't inhibit telomerase activity; also recorded: does not directly inhibit the telomerase activity
effect on telomeres [9]: capable of shortening the telomeres of human cancer cells; also recorded: capable of shortening telomeres of human cancer cells, inducing cellular senescence and chromosomal abnormalities
main target organs of toxicity [10]: bone marrow and lymphoid organs
change in ECG activity, audiometry or neurological examinations [11]: no change
disturbance of patients' well-being feeling [11]: did not cause any disturbance
glucose levels [11]: always appeared elevated
hemoglobin concentration at end [11]: 11.1
hemoglobin concentration at start [11]: 10.0
liver transaminases sGOT, sGPT and sGGT [11]: reversible increase
sGGT elevation [11]: worsened
sGGT elevation and thrombocytosis [11]: remained unchanged
sGPT [11]: reversible and slight increase
triglycerides and cholesterol level [11]: unchanged
occurrence of the adverse events known for arsenic trioxide ([11]; po): none of these adverse events have been observed
